PMC8770518, “Evolutionary alterations in gene expression and enzymatic activities of gibberellin 3-oxidase 1 in Oryza” (Communications Biology, 2022)

Experiments:
[1] = molecular target: T1, GID1 (Oryza sativa, UniProt Q6L545); experiment: yeast two-hybrid GID1-SLR1 interaction (-His growth); type: cell-based; details: GA-dependent interaction with SLR1; GA 1e-10 to 1e-5 M
T1 construct: yeast two-hybrid fusions: GID1 bait in pGBKT7, SLR1 prey in pGADT7; with DELLA protein SLR1
T1 sequence (Q6L545 1-354): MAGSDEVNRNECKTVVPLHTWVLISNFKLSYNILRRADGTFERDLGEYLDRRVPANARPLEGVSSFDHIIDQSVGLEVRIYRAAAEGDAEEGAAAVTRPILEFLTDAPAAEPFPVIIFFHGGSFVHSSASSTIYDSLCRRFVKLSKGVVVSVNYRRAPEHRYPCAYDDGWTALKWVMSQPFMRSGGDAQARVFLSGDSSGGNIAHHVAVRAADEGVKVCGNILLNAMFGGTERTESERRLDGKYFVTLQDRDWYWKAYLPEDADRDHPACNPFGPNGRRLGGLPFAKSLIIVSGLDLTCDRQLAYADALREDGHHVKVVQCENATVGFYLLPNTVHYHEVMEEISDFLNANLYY
T1 sequence (Q7G7J6 1-625 partner): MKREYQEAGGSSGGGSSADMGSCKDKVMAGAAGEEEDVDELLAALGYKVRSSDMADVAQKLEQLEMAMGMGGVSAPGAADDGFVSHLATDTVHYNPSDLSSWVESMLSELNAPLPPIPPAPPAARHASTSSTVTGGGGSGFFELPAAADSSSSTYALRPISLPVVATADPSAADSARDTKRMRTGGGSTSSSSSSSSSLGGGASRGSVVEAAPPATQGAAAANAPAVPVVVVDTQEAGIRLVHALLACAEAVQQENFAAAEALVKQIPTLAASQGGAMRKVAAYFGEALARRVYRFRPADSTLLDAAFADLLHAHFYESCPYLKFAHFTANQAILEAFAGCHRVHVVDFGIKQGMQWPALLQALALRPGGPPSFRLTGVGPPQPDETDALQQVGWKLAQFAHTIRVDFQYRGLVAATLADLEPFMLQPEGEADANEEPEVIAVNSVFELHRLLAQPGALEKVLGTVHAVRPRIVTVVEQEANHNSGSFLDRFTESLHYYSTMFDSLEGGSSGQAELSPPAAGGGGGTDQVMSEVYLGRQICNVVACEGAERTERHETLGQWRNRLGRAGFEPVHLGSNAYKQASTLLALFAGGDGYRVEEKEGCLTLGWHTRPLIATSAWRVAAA

[2] = molecular target: T2, OsGA3ox2 (Oryza sativa, UniProt Q9FU53); experiment: X-ray crystallography, […] A; type: binding; details: Fe(II) omitted, active site
T2 construct: gene GA3OX2; crystallised without Fe(II)

[3] = molecular target: T3, OsGA3ox1 (Oryza sativa, UniProt Q6AT12); experiment: in vitro 3-oxidation, gas chromatography of products; type: biochemical; details: products GA4 and GA7
T3 construct: gene GA3OX1

[4] = molecular target: T4, OsGA3ox1 (Oryza sativa, UniProt Q6AT12, F235Y); experiment: as above; type: biochemical; details: products GA4 and GA7
T4 construct: gene GA3OX1
T4 sequence (Q6AT12 1-384 F235Y): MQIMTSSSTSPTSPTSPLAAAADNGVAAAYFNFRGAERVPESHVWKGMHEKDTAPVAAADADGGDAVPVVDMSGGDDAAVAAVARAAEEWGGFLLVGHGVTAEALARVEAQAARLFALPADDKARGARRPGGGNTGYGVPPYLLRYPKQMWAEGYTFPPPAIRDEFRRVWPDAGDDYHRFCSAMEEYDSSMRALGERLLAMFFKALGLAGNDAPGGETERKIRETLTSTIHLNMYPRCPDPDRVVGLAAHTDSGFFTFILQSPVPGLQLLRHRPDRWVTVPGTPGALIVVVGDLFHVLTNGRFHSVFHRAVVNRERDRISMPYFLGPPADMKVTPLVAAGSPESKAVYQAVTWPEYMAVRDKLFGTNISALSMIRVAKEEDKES

T2 sequence (Q9FU53 whole entry): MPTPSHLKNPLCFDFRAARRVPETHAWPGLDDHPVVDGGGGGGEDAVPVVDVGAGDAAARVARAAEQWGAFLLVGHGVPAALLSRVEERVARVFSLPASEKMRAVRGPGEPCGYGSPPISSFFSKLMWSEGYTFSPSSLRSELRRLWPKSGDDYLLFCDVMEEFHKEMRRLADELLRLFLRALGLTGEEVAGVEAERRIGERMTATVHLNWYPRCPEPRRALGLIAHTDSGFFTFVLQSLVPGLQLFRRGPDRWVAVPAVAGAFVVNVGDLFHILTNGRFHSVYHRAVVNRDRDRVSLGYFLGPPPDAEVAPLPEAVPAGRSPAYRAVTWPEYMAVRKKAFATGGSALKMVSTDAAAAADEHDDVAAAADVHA
T3 sequence (Q6AT12 whole entry): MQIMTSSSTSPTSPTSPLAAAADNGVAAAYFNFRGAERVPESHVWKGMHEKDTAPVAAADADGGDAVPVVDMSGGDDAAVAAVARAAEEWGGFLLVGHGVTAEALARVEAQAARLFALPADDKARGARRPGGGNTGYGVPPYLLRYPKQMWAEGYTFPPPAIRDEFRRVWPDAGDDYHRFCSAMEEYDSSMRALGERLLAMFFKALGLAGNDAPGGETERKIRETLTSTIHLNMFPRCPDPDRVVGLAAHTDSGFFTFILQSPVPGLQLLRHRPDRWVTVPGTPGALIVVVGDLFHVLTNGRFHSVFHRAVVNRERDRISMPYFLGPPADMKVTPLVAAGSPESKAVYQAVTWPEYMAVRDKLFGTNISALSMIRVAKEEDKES

C=C1C[C@]23C[C@H]1CC[C@H]2[C@@]12CC[C@H](O)[C@@](C)(C(=O)O1)[C@H]2[C@@H]3C(=O)O [GA4]
yeast two-hybrid GID1-SLR1 interaction (-His growth) [1]: GA7 showed the highest efficiency among all GA ligands, followed by GA4

O=C(O)CCC(=O)C(=O)O [2-oxoglutarate]
X-ray crystallography, 1.9 A ([2]; complex with GA9, 10 mM 2-oxoglutarate, pH 7.0): structure of the OsGA3ox2 complex with (co-) substrates; GA9 and 2-oxoglutarate (2OG)

C=C1C[C@]23C[C@H]1CC[C@H]2[C@@]12C=C[C@H](O)[C@@](C)(C(=O)O1)[C@H]2[C@@H]3C(=O)O [GA7]
yeast two-hybrid GID1-SLR1 interaction (-His growth) [1]: GA7 showed the highest efficiency among all GA ligands, followed by GA4

C=C1C[C@]23C[C@H]1CC[C@H]2[C@@]12CCC[C@@](C)(C(=O)O1)[C@H]2[C@@H]3C(=O)O [GA9]
in vitro 3-oxidation, gas chromatography of products [3]: GA biosynthesis activities of recombinant OsGA3ox1 and OsGA3ox2 for GA9 as a substrate
in vitro 3-oxidation, gas chromatography of products [4]: The productivity of GA7 was lower in F235Y-OsGA3ox1 than that in OsGA3ox1
X-ray crystallography, 1.9 A ([2]; complex with 2-oxoglutarate, 0.5 mM GA9, pH 7.0): structure of the OsGA3ox2 complex with (co-) substrates; GA9 and 2-oxoglutarate (2OG)
